This note sets out measurements from BigSolDB 2.1.

Broadly, the solubility (mole fraction) is solubility expressed as the solute's share of all molecules. As to `Cc1cc(N)ccc1S(=O)(=O)Nc1ccccc1Cl`, the solubility (mole fraction) runs as follows: (in n-octanol, 293.15 K) 8.97e-05; (in n-octanol, 298.15 K) 0.000115; (in n-octanol, 303.15 K) 0.000143; (in n-octanol, 310.15 K) 0.000192; (in n-octanol, 315.15 K) 0.000242; (in water, 293.15 K) 1.39e-07. This compound gave a solubility (mole fraction) (in water, 298.15 K) of 1.57e-07; a solubility (mole fraction) (in water, 303.15 K) of 1.74e-07; a solubility (mole fraction) (in water, 310.15 K) of 2.07e-07; a solubility (mole fraction) (in water, 315.15 K) of 2.32e-07.

Turning to `Cc1ccc(NS(=O)(=O)c2ccc(N)cc2)c(Cl)c1`, the solubility (mole fraction) (in n-octanol, 293.15 K) is 0.00133; the solubility (mole fraction) (in n-octanol, 298.15 K) was 0.00158; the solubility (mole fraction) (in n-octanol, 303.15 K) was determined as 0.0018; the solubility (mole fraction) (in n-octanol, 310.15 K) came out at 0.00221; the solubility (mole fraction) (in n-octanol, 315.15 K) worked out at 0.00259; the solubility (mole fraction) (in water, 295.15 K) was 7.06e-07. This compound also gave a solubility (mole fraction) (in water, 298.15 K) of 7.65e-07; a solubility (mole fraction) (in water, 303.15 K) of 9.36e-07; a solubility (mole fraction) (in water, 310.15 K) of 1.18e-06; a solubility (mole fraction) (in water, 315.15 K) of 1.45e-06.

Turning to `Nc1ccc(S(=O)(=O)Nc2ccc(Cl)cc2)cc1`, the solubility (mole fraction) turned out to be 0.00126 (in n-octanol, 290.15 K); 0.00132 (in n-octanol, 298.15 K); 0.00145 (in n-octanol, 303.15 K); 0.00153 (in n-octanol, 310.15 K); 0.00167 (in n-octanol, 315.15 K); 9.2e-07 (in water, 293.15 K). The solubility (mole fraction) was found to be 1.19e-06 (in water, 298.15 K); 1.51e-06 (in water, 303.15 K); 2.02e-06 (in water, 310.15 K); 2.84e-06 (in water, 315.15 K).

Turning to `Cc1ccc(Cl)cc1NS(=O)(=O)c1ccc(N)cc1`, the solubility (mole fraction) worked out at 0.00153 (in n-octanol, 293.15 K); 0.00188 (in n-octanol, 298.15 K); 0.00221 (in n-octanol, 303.15 K); 0.00273 (in n-octanol, 310.15 K); 0.00323 (in n-octanol, 315.15 K); 6.16e-07 (in water, 295.15 K). The same compound yielded a solubility (mole fraction) (in water, 298.15 K) of 7.72e-07; a solubility (mole fraction) (in water, 303.15 K) of 1.03e-06; a solubility (mole fraction) (in water, 310.15 K) of 1.51e-06; a solubility (mole fraction) (in water, 315.15 K) of 2.12e-06.

`Nc1ccc(S(=O)(=O)Nc2ccccc2Cl)c(Cl)c1`: the solubility (mole fraction) runs as follows: (in n-octanol, 293.15 K) 5.85e-05; (in n-octanol, 298.15 K) 7.4e-05; (in n-octanol, 303.15 K) 9.37e-05; (in n-octanol, 310.15 K) 0.000128; (in n-octanol, 315.15 K) 0.000164; (in water, 293.15 K) 1.05e-07. Further, the solubility (mole fraction) by setting is: (in water, 298.15 K) 1.19e-07; (in water, 303.15 K) 1.35e-07; (in water, 310.15 K) 1.55e-07; (in water, 315.15 K) 1.75e-07.

Regarding `Nc1ccc(S(=O)(=O)Nc2cc(Cl)c(Cl)cc2Cl)cc1`, the solubility (mole fraction) (in n-octanol, 293.15 K) amounted to 0.00097; the solubility (mole fraction) (in n-octanol, 298.15 K) came out at 0.00109; the solubility (mole fraction) (in n-octanol, 303.15 K) stood at 0.00118; the solubility (mole fraction) (in n-octanol, 310.15 K) was determined as 0.00146; the solubility (mole fraction) (in n-octanol, 315.15 K) was 0.00179; the solubility (mole fraction) (in water, 293.15 K) was determined as 2.22e-07. Also, the solubility (mole fraction) by setting is: (in water, 298.15 K) 2.51e-07; (in water, 303.15 K) 2.74e-07; (in water, 310.15 K) 3.07e-07; (in water, 315.15 K) 3.33e-07.

Take `Cc1ccc(NS(=O)(=O)c2ccc(N)cc2)cc1Cl`: the solubility (mole fraction) was determined as 0.000491 (in n-octanol, 293.15 K); 0.000552 (in n-octanol, 298.15 K); 0.00064 (in n-octanol, 303.15 K); 0.000801 (in n-octanol, 310.15 K); 0.000897 (in n-octanol, 315.15 K); 1.26e-07 (in water, 293.15 K). The compound further displayed a solubility (mole fraction) (in water, 298.15 K) of 1.53e-07; a solubility (mole fraction) (in water, 303.15 K) of 1.79e-07; a solubility (mole fraction) (in water, 310.15 K) of 2.25e-07; a solubility (mole fraction) (in water, 315.15 K) of 2.56e-07.

Regarding `Nc1ccc(S(=O)(=O)Nc2cc(Cl)ccc2Cl)cc1`, the solubility (mole fraction) (in n-octanol, 290.15 K) is 0.000347; the solubility (mole fraction) (in n-octanol, 298.15 K) amounted to 0.000412; the solubility (mole fraction) (in n-octanol, 303.15 K) is 0.000529; the solubility (mole fraction) (in n-octanol, 310.15 K) stood at 0.000667; the solubility (mole fraction) (in n-octanol, 315.15 K) was determined as 0.00089; the solubility (mole fraction) (in water, 293.15 K) is 6.12e-07. The solubility (mole fraction) (in water, 298.15 K) worked out at 7.25e-07; the solubility (mole fraction) (in water, 303.15 K) is 8.98e-07; the solubility (mole fraction) (in water, 310.15 K) is 1.03e-06; the solubility (mole fraction) (in water, 315.15 K) was 1.24e-06.

Regarding `Nc1ccc(S(=O)(=O)Nc2ccc(Cl)cc2)c(Cl)c1`, the solubility (mole fraction) is 0.0021 (in n-octanol, 293.15 K); 0.00248 (in n-octanol, 298.15 K); 0.00287 (in n-octanol, 303.15 K); 0.00349 (in n-octanol, 310.15 K); 0.00391 (in n-octanol, 315.15 K); 4.05e-07 (in water, 293.15 K). The solubility (mole fraction) by setting is: (in water, 298.15 K) 4.72e-07; (in water, 303.15 K) 5.62e-07; (in water, 310.15 K) 6.86e-07; (in water, 315.15 K) 8.12e-07.

In the case of `Cc1cc(N)ccc1S(=O)(=O)Nc1ccc(Cl)cc1`, the solubility (mole fraction) reads like this: (in n-octanol, 293.15 K) 0.00319; (in n-octanol, 298.15 K) 0.00356; (in n-octanol, 303.15 K) 0.00393; (in n-octanol, 310.15 K) 0.00465; (in n-octanol, 315.15 K) 0.00519; (in water, 293.15 K) 4.79e-07. Moreover, the solubility (mole fraction) reads like this: (in water, 298.15 K) 6.71e-07; (in water, 303.15 K) 9.04e-07; (in water, 310.15 K) 1.35e-06; (in water, 315.15 K) 1.68e-06.

Turning to `Cc1cc(Cl)ccc1NS(=O)(=O)c1ccc(N)cc1`, the solubility (mole fraction) runs as follows: (in n-octanol, 293.15 K) 0.00426; (in n-octanol, 298.15 K) 0.00489; (in n-octanol, 303.15 K) 0.00556; (in n-octanol, 310.15 K) 0.00675; (in n-octanol, 315.15 K) 0.00786; (in water, 293.15 K) 1.25e-06. Besides, the solubility (mole fraction) turned out to be 1.61e-06 (in water, 298.15 K); 2.11e-06 (in water, 303.15 K); 3.08e-06 (in water, 310.15 K); 3.74e-06 (in water, 315.15 K).

With `Nc1ccc(S(=O)(=O)Nc2ccc(Cl)c(Cl)c2)cc1`, the solubility (mole fraction) is 0.000317 (in n-octanol, 290.15 K); 0.000356 (in n-octanol, 298.15 K); 0.000422 (in n-octanol, 303.15 K); 0.000501 (in n-octanol, 310.15 K); 0.000617 (in n-octanol, 315.15 K); 1.67e-07 (in water, 293.15 K). The compound further had a solubility (mole fraction) (in water, 298.15 K) of 2.05e-07; a solubility (mole fraction) (in water, 303.15 K) of 2.48e-07; a solubility (mole fraction) (in water, 310.15 K) of 3.26e-07; a solubility (mole fraction) (in water, 315.15 K) of 3.89e-07.

For the compound `Cc1cc(N)ccc1S(=O)(=O)Nc1ccccc1[N+](=O)[O-]`, the solubility (mole fraction) came out at 0.000152 (in n-octanol, 293.15 K); 0.000198 (in n-octanol, 298.15 K); 0.000247 (in n-octanol, 303.15 K); 0.000345 (in n-octanol, 310.15 K); 0.000449 (in n-octanol, 315.15 K); 4.41e-07 (in water, 293.15 K). The solubility (mole fraction) (in water, 298.15 K) was determined as 5.17e-07; the solubility (mole fraction) (in water, 303.15 K) is 5.79e-07; the solubility (mole fraction) (in water, 310.15 K) is 8.02e-07; the solubility (mole fraction) (in water, 315.15 K) worked out at 9.35e-07.
